Measurements as given in PubChem BioAssay (NCI).
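Briefly, cells in 96-well plates were exposed to five compound concentrations for 48 h, and endpoints were estimated by linear interpolation. TGI is the concentration that stops growth completely.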 *1 amine or outer side, *2 acyl side, *3 side chain or, on linkers, in order; H or OH if unused. Where a SMILES comes first, the peptide text is derived from it. Bridges are numbered along the chain shown (N, C = ends). [ ]: non-standard residue; d: D form. The star is where a group is joined. ξ: configuration not given here. X34 = O=C(C(CCCCNO[*:3])N[*:1])[*:2]; Fmoc = O=C(OCC1c2ccccc2-c2ccccc21)*; ξW = NC(Cc1c[nH]c2ccccc12)C(=O)O; Boc = CC(C)(C)OC(=O)*; ξP = O=C(O)C1CCCN1

Columns and labels:
Experiment in all cases: DTP human tumour cell line panel, 48 h
A498 renal = test system: A498 renal
DU-145 prostate = test system: DU-145 prostate
EKVX NSCLC = test system: EKVX NSCLC
HL-60(TB) leukemia = test system: HL-60(TB) leukemia
HS 578T breast = test system: HS 578T breast
KM12 colon = test system: KM12 colon
M14 melanoma = test system: M14 melanoma
MALME-3M melanoma = test system: MALME-3M melanoma
MDA-MB-231 breast = test system: MDA-MB-231 breast
MDA-N = test system: MDA-N
NCI-H522 lung = test system: NCI-H522 lung
OVCAR-4 ovarian = test system: OVCAR-4 ovarian
SF-268 CNS = test system: SF-268 CNS
SK-MEL-2 melanoma = test system: SK-MEL-2 melanoma
SK-OV-3 ovarian = test system: SK-OV-3 ovarian
U251 CNS = test system: U251 CNS
UO-31 renal = test system: UO-31 renal
T-47D breast = test system: T-47D breast
SR leukemia = test system: SR leukemia

Compound | TGI (A498 renal) [µM] | TGI (DU-145 prostate) [µM] | TGI (EKVX NSCLC) [µM] | TGI (HL-60(TB) leukemia) [µM] | TGI (HS 578T breast) [µM] | TGI (KM12 colon) [µM] | TGI (M14 melanoma) [µM] | TGI (MALME-3M melanoma) [µM] | TGI (MDA-MB-231 breast) [µM] | TGI (MDA-N) [µM] | TGI (NCI-H522 lung) [µM] | TGI (OVCAR-4 ovarian) [µM] | TGI (SF-268 CNS) [µM] | TGI (SK-MEL-2 melanoma) [µM] | TGI (SK-OV-3 ovarian) [µM] | TGI (U251 CNS) [µM] | TGI (UO-31 renal) [µM] | TGI (T-47D breast) [µM] | TGI (SR leukemia) [µM]
CCN1CC2=C(NC(=S)NC2c2ccc(Cl)cc2)/C(=C/c2ccc(Cl)cc2)C1 (centres undefined) | 62.1 | > 100 | > 100 | > 100 | > 100 | > 100 | > 100 | > 100 | > 100 | > 100 | > 100 | > 100 | > 100 | > 100 | > 100 | > 100 | > 100 | – | –
COc1ccc(C2CC(c3c(O)ccc4ccccc34)=NN2c2ccc([N+](=O)[O-])cc2[N+](=O)[O-])cc1OC (centres undefined) | 35.9 | > 100 | > 67 | – | > 89.7 | > 76.6 | > 100 | 56.4 | > 68.8 | > 100 | > 42.9 | > 100 | > 100 | > 65.1 | > 88 | > 100 | 97.4 | 79.7 | –
CCOP(=O)(OCC)/C(C#N)=C/c1cnc(-c2ccccc2)[nH]1 | > 100 | > 100 | > 100 | > 100 | > 100 | > 100 | > 100 | > 100 | > 100 | > 100 | > 100 | > 100 | > 100 | > 100 | > 100 | > 100 | > 100 | – | > 100
Cc1c(-c2nc3ccccc3[nH]2)c(=O)n(-c2ccccc2)n1C | – | > 100 | > 100 | > 100 | > 100 | > 100 | > 100 | > 100 | > 100 | > 100 | > 100 | > 100 | > 100 | > 100 | > 100 | > 100 | > 100 | > 100 | –
CC(C)(C)c1ccc2c(c1)CNCCNCc1cc(C(C)(C)C)ccc1OCC1(CO2)COc2ccc(C(C)(C)C)cc2CNCCNCc2cc(C(C)(C)C)ccc2OC1 | 2.83 | 3.15 | 2.42 | 0.475 | – | 0.933 | 1.45 | 2.8 | 0.623 | 2.14 | 0.421 | 2.93 | 5.12 | 2.89 | – | 0.479 | 3.25 | 3.73 | –
NC(=O)CNC(=O)C1CCCN1C(=O)C1CCCCNOC(=O)CC[C@@H](NC(=O)OCC2c3ccccc3-c3ccccc32)C(=O)NC(Cc2c[nH]c3ccccc23)C(=O)N1 (some centres undefined) (Fmoc-[dE][ξW][X34][ξP]G-NH2; ester 1-3) | – | > 100 | > 100 | > 100 | > 100 | > 100 | > 100 | > 100 | > 100 | – | > 100 | > 100 | > 100 | > 100 | > 100 | > 100 | > 100 | > 100 | > 100
CCOC(=O)CNC(=O)C(CSCc1ccc(Br)cc1)NC(=O)CCC(N)C(=O)OCC (centres undefined) | – | > 50 | > 50 | – | > 50 | > 50 | > 50 | – | > 50 | > 50 | > 50 | > 50 | > 50 | > 50 | > 50 | > 50 | > 50 | – | > 50
OCC1CCCCCCCCCCC12SCCCS2 (centres undefined) | – | > 100 | > 100 | > 100 | > 100 | > 100 | > 100 | > 100 | – | > 100 | > 100 | > 100 | > 100 | > 100 | > 100 | > 100 | > 100 | > 100 | > 100
Cc1ccc(-c2c(C#N)c(-c3ccccc3)n(NS(=O)(=O)c3ccccc3)c(=O)c2C#N)cc1 | > 100 | – | > 100 | – | – | > 100 | > 100 | > 100 | > 100 | > 100 | > 100 | > 100 | > 100 | > 100 | > 100 | > 100 | – | – | –
CC(CN1c2ccccc2Sc2ccccc21)N(C)C (centres undefined) | 34.4 | 34.9 | 58.7 | 39.9 | – | 37.6 | 33.9 | 34.5 | 32.4 | – | 36.3 | 32.5 | 33.5 | 34.7 | 32.6 | 27.7 | 32.8 | 41.6 | 40.9
O=C(CCCCCCCCC(=O)NN1C(=O)/C(=C\c2ccc(O)c(O)c2)SC1c1ccc(Cl)cc1)NN1C(=O)/C(=C\c2ccc(O)c(O)c2)SC1c1ccc(Cl)cc1 (centres undefined) | 69 | 81.1 | > 100 | – | – | > 100 | > 100 | > 100 | > 100 | > 100 | 32.5 | > 100 | > 62.7 | > 61.8 | > 90.9 | > 55.1 | > 55 | > 100 | 28.3
CC(C)(C)C1=C(Br)C(Br)(C(C)(C)C)OP1(=O)c1ccccc1 (centres undefined) | > 100 | > 100 | > 100 | > 100 | > 100 | > 100 | > 100 | > 100 | – | > 100 | > 100 | > 100 | > 100 | > 100 | > 100 | > 100 | > 100 | > 100 | > 100
CC1(C)OCC(COC(=O)C=[N+]=[N-])O1 (centres undefined) | > 100 | > 100 | > 100 | > 100 | – | > 100 | – | > 100 | > 100 | > 100 | > 100 | > 100 | > 100 | > 100 | > 100 | > 100 | > 100 | – | > 100
COC(=O)CNC(=O)C(Cc1ccccc1)NC(=O)C(CCSC)NC(=O)C(Cc1ccc(O)cc1)NC(=O)OC(C)(C)C (centres undefined) (Boc-YMFG-OMe; configuration not given here) | > 100 | > 100 | – | > 100 | > 100 | > 100 | > 100 | > 100 | 52.8 | > 100 | 43 | > 100 | 87.7 | 33.1 | > 100 | > 100 | > 100 | > 100 | –
CSc1nc(Cl)c2c(n1)Sc1nc3cc4c(cc3n1C2O)OCCO4 (centres undefined) | 15.9 | 15.9 | 36.3 | – | 23.6 | > 100 | 15.5 | 32.6 | 34.3 | – | 0.386 | 44.2 | 80.3 | 29.2 | > 53.4 | 14.3 | 16 | 65.3 | –
Cc1nnc(Nc2ccccc2)o1 | – | > 100 | > 100 | > 100 | – | > 100 | > 100 | > 100 | – | > 100 | > 100 | > 100 | > 100 | > 100 | > 100 | > 100 | > 100 | > 100 | > 100
CC(C)Sc1nc(C#N)cc2c1CCCC2 | > 100 | > 100 | > 100 | – | – | > 100 | > 100 | > 100 | > 100 | > 100 | 78.4 | > 100 | > 100 | 63.2 | > 100 | > 100 | > 100 | > 100 | 79.1
c1ccc2c(c1)OC(N1CCCC1)c1cnc(N3CCCC3)nc1-2 (centres undefined) | 76 | > 100 | 58.5 | 66.5 | 89.7 | > 100 | > 100 | > 100 | > 100 | – | – | > 100 | > 100 | – | > 100 | > 100 | 87.7 | 93.3 | > 100
CCOC(=O)C1Cc2[nH]c3ccccc3c2C(C)C1C (centres undefined) | 34.4 | – | 31.2 | – | – | 34.6 | 30.7 | 33.2 | – | – | 26.6 | 30.9 | 47.5 | 36 | 45.3 | 35.1 | 35.8 | – | 41.2
COc1ccc(-c2cc(-c3ccco3)c(C#N)c(=S)n2C2OC(COC(C)=O)C(OC(C)=O)C(OC(C)=O)C2OC(C)=O)cc1 (centres undefined) | – | 20.3 | 32.2 | 20.7 | 21.1 | 33.4 | 17.7 | 16.9 | 16.1 | 19.2 | 18 | 10 | 23.5 | – | 26.8 | 17.8 | 27.2 | 21.7 | –
COC(=O)C1(C(=O)OC)CC2=C(S(=O)(=O)c3ccccc3)C[C@H](S(=O)(=O)c3ccccc3)[C@H]2C1 | > 100 | > 100 | > 100 | – | > 100 | > 100 | > 100 | > 100 | > 100 | > 100 | 92.7 | > 100 | > 100 | > 100 | > 100 | > 100 | > 100 | 92.6 | –
Nc1nc2cc3nc(N)c(N)nc3cc2nc1N | > 100 | > 100 | > 100 | > 100 | > 100 | > 100 | > 100 | > 100 | > 100 | > 100 | > 100 | – | > 100 | > 100 | > 100 | > 100 | > 100 | – | > 100
O=C(O)CSc1nnc(COc2ccc(Cl)cc2)n1-c1ccccc1 | > 100 | > 100 | > 100 | > 100 | – | > 100 | > 100 | > 100 | > 100 | > 100 | > 100 | > 100 | > 100 | > 100 | > 100 | > 100 | > 100 | > 100 | –
O=C(/C=C/c1ccc(O)c([N+](=O)[O-])c1)CC(=O)/C=C/c1ccc(O)c([N+](=O)[O-])c1 | – | > 100 | > 100 | 44.6 | > 100 | 97.6 | > 100 | – | 68 | > 100 | > 100 | > 100 | > 100 | > 100 | > 100 | 55.3 | > 100 | – | –
O=C(CN1c2ccccc2Sc2ccccc21)N1CCNCC1 | > 100 | > 100 | > 100 | > 100 | > 100 | > 100 | > 100 | > 100 | > 100 | > 100 | – | > 100 | > 100 | > 100 | > 100 | > 100 | > 100 | > 100 | –
CC(O[Si](c1ccccc1)(c1ccccc1)C(C)(C)C)[C@H](NC(=O)OC(C)(C)C)C(=O)O[Si](c1ccccc1)(c1ccccc1)C(C)(C)C (some centres undefined) | – | 25.6 | 26.4 | 31 | 44.4 | 24.3 | 29.4 | 34.3 | – | 34.1 | – | 16.5 | 31.1 | – | 30 | 31.7 | 26.3 | 25.7 | 82
